From publication PMC3488456 (Bioorganic & medicinal chemistry letters, 2012)
pEC50: −log10 of the molar value.

Assays:
Rev-erbα = target: T1, Rev-erbα (Homo sapiens, UniProt P20393); assay type: cell-based
T1 sequence (P20393 1-614): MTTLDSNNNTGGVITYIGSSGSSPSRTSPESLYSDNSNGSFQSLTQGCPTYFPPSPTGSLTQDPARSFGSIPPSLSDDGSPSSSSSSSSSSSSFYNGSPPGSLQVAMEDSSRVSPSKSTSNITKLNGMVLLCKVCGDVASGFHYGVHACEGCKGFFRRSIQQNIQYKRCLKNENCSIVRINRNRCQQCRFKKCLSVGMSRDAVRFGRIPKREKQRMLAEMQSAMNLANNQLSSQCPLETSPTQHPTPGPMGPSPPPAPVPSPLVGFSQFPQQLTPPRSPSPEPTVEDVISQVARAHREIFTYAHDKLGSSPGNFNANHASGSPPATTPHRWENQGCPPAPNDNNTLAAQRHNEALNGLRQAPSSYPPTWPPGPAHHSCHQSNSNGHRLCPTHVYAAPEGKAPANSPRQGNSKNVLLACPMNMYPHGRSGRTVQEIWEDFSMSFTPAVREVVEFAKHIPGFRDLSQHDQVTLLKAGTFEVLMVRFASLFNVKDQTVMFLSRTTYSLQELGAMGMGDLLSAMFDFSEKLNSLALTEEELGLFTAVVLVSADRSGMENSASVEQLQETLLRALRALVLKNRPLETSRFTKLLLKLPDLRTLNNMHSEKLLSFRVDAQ

Rat pharmacokinetics = assay type: in vivo, Sprague-Dawley rats; settings: for clearance: Sprague-Dawley, rat, in vivo, iv, 1 mg/kg
LXRα = settings: reporter-gene assay; cited from earlier work
Mouse brain penetration = assay type: in vivo, C57Bl6 mice; settings: mice
FXR = settings: same FRET assay; cited from earlier work
LRH1 = settings: same FRET assay; cited from earlier work
RORα = settings: same FRET assay; cited from earlier work
LXRβ = settings: reporter-gene assay; cited from earlier work
SF1 = settings: same FRET assay; cited from earlier work

SMILES: CCOC(=O)C1Cc2ccccc2CN1C(=O)c1ccno1 (centres unmarked) [Compound 3n]
- pEC50 (Rev-erbα): 5.60

SMILES: O=C(c1cccc2ccccc12)N1Cc2ccccc2CC1COCc1ccccc1 (centres unmarked) [Compound 6d]
- clearance (Rat pharmacokinetics): 39 mL/min/kg
- oral bioavailability / oral absorption (in words) (Rat pharmacokinetics; rats): poor oral absorption

SMILES: CC(C)(C)OC(=O)CN(Cc1ccc(Cl)cc1)Cc1ccc([N+](=O)[O-])s1 [Compound 1]
- activity on LXRα (LXRα): no activity
- brain penetration (in words) (Mouse brain penetration): good brain penetration
- activity on FXR (FXR): no activity
- activity on LRH1 (LRH1): no activity
- activity on RORα (RORα): no activity
- activity on LXRβ (LXRβ): no activity
- clearance (Rat pharmacokinetics): 353 mL/min/kg
- oral bioavailability / oral absorption (in words) (Rat pharmacokinetics; rats): poor oral bioavailability
- plasma clearance (in words) (Rat pharmacokinetics; rats): very high plasma clearance
- volume of distribution (in words) (Rat pharmacokinetics; rats): high volume of distribution
- rodent pharmacokinetics (in words) (Rat pharmacokinetics; rodent): poor
- activity on SF1 (SF1): no activity

SMILES: O=C(c1cccc2ccccc12)N1Cc2ccccc2CC1CNCc1ccccc1 (centres unmarked) [Compound 7d]
- clearance (Rat pharmacokinetics): 43 mL/min/kg
- oral bioavailability / oral absorption (in words) (Rat pharmacokinetics; rats): poor oral absorption
